What was measured:
Experiment in all cases: KINOMEscan competition binding
Conditions in all cases: compound 2.0 µM
[1] = target: CSNK2A1 (human) (UniProt P68400)
[2] = target: CLK2 (human) (UniProt P49760)
[3] = target: PIP5K1C (human) (UniProt O60331)
[4] = target: MUSK (human) (UniProt O15146)
[5] = target: CDK18 (human) (UniProt Q07002)
[6] = target: MAP2K2 (human) (UniProt P36507)
[7] = target: CDC42BPB (human) (UniProt Q9Y5S2)
[8] = target: JAK2 JH1 catalytic (human) (UniProt O60674)
[9] = target: MAP2K1 (human) (UniProt Q02750)
[10] = target: TYK2 JH1 catalytic (human) (UniProt P29597)
[11] = tested on: FLT3 (human), P36888 [D835Y]
[12] = target: MAPK8 (human) (UniProt P45983)
[13] = target: FGR (human) (UniProt P09769)
[14] = target: SRMS (human) (UniProt Q9H3Y6)
[15] = target: MARK3 (human) (UniProt P27448)
[16] = target: RPS6KA5 KD2 (human) (UniProt O75582)
[17] = target: RAF1 (human) (UniProt P04049)
[18] = target: LYN (human) (UniProt P07948)
Chain of LYN (human) (P07948 whole entry, looked up): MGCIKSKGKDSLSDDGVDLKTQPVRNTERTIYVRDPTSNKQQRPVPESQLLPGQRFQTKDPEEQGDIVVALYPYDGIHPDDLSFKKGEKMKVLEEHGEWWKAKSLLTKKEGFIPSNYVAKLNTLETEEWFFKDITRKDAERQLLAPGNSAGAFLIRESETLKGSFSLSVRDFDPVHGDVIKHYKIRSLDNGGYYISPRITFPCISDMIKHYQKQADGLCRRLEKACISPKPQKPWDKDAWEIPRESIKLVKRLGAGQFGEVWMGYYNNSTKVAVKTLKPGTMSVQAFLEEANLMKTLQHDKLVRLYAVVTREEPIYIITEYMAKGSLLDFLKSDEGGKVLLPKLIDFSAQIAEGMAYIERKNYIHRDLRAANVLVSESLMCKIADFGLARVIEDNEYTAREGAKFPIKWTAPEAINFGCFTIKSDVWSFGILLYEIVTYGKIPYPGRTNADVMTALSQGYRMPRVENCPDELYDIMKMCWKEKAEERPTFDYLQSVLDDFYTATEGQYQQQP

[19] = target: MYLK (human) (UniProt Q15746)
[20] = target: CDK17 (human) (UniProt Q00537)
[21] = target: CLK3 (human) (UniProt P49761)
[22] = target: HIPK2 (human) (UniProt Q9H2X6)
[23] = tested on: PIK3CA (human), P42336 [I800L]
Chain of PIK3CA (human), P42336 [I800L] (P42336 whole entry I800L, looked up): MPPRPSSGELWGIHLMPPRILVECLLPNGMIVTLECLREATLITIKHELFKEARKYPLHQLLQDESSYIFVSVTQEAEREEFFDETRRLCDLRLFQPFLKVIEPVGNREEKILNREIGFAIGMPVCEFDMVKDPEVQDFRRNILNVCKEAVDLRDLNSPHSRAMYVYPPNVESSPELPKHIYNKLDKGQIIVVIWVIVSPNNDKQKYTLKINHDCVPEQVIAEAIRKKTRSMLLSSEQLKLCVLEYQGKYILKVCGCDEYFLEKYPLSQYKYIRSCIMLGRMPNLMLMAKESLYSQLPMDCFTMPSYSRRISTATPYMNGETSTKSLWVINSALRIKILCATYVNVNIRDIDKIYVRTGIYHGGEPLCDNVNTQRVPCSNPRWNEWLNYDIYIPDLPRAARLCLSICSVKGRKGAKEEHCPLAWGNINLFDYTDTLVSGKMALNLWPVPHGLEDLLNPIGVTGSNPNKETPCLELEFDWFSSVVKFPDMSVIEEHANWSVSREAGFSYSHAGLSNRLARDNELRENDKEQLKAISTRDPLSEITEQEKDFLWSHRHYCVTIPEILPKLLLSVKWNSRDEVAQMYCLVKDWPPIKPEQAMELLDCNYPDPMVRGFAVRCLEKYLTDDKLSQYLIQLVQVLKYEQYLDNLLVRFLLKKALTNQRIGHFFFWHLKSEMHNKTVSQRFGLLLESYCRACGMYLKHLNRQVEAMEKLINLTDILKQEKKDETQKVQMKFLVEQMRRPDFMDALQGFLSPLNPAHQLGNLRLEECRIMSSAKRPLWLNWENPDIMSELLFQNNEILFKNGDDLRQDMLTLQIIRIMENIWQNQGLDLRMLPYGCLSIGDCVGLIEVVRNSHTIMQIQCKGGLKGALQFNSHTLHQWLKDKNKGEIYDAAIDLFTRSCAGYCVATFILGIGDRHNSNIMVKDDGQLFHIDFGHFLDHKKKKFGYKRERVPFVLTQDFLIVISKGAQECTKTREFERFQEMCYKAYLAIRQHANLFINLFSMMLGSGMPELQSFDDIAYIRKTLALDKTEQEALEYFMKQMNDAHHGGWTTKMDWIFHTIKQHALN

[24] = target: RIOK2 (human) (UniProt Q9BVS4)
Chain of RIOK2 (human) (Q9BVS4 whole entry, looked up): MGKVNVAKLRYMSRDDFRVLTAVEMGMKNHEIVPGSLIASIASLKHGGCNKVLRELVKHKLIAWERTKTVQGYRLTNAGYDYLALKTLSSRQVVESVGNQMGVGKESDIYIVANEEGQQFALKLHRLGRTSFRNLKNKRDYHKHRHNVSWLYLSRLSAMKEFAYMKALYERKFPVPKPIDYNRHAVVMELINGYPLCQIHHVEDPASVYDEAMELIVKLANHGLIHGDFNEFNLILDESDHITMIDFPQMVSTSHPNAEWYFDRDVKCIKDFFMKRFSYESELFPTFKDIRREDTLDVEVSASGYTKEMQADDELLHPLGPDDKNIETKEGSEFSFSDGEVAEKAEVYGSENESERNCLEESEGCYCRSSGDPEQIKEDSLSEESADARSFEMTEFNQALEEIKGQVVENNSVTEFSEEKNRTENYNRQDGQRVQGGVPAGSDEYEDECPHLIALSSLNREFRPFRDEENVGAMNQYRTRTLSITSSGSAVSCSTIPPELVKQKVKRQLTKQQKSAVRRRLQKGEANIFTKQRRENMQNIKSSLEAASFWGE

[25] = target: JAK1 JH2 pseudokinase (human) (UniProt P23458)
[26] = target: ERN1 (human) (UniProt O75460)
[27] = tested on: KIT (human), P10721 [V559D/V654A]
[28] = tested on: RET (human), P07949 [M918T]
Chain of RET (human), P07949 [M918T] (P07949 whole entry M918T, looked up): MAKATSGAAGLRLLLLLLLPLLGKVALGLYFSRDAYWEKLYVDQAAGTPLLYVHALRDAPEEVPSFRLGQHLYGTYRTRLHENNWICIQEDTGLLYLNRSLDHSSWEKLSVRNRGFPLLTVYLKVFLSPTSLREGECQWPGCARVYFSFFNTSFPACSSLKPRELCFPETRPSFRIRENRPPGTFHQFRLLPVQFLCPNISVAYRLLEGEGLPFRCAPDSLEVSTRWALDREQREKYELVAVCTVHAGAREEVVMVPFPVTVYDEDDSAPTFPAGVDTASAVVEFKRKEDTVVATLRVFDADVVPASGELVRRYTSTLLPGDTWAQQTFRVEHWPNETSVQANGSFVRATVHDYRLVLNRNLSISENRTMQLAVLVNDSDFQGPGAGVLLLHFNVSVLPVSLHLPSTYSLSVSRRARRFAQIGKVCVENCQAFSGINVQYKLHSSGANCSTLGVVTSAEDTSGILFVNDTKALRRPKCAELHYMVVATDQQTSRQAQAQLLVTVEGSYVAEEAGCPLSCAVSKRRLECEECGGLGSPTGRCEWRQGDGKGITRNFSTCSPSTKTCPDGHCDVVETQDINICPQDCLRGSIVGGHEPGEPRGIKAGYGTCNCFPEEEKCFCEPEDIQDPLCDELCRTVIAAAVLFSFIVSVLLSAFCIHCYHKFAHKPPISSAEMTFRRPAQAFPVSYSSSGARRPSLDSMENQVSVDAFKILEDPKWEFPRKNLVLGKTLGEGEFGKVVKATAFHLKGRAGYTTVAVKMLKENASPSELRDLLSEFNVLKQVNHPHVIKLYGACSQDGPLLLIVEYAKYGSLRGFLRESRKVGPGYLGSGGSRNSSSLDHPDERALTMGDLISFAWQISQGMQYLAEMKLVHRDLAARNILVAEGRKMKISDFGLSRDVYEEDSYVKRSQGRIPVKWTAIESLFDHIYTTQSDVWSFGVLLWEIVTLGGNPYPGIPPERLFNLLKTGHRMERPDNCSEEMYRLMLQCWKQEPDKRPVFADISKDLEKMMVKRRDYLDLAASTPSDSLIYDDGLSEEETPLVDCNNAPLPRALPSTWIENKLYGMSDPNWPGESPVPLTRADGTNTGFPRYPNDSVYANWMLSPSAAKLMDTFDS

[29] = target: DAPK3 (human) (UniProt O43293)
[30] = target: PLK3 (human) (UniProt Q9H4B4)
[31] = tested on: EGFR (human), P00533 [752-759 del]
[32] = target: GAK (human) (UniProt O14976)
[33] = target: LIMK1 (human) (UniProt P53667)
[34] = target: ULK1 (human) (UniProt O75385)
[35] = target: ERBB3 (human) (UniProt P21860)
[36] = target: MST4 (human) (UniProt Q9P289)
Chain of MST4 (human) (Q9P289 whole entry, looked up): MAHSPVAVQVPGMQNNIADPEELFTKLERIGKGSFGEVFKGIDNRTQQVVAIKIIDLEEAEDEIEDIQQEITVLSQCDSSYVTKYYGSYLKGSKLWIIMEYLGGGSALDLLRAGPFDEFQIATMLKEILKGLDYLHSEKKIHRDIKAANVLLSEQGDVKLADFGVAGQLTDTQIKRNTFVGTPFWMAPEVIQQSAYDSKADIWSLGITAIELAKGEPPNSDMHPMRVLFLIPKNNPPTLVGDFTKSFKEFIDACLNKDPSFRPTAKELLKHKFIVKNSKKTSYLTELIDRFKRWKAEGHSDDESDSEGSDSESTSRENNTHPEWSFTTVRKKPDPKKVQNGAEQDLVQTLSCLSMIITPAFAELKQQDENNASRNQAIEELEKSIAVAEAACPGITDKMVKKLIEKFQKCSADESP

[37] = target: MAPK9 (human) (UniProt P45984)
[38] = target: CDK14 (human) (UniProt O94921)
[39] = target: PI4KB (human) (UniProt Q9UBF8)
Chain of PI4KB (human) (Q9UBF8 whole entry, looked up): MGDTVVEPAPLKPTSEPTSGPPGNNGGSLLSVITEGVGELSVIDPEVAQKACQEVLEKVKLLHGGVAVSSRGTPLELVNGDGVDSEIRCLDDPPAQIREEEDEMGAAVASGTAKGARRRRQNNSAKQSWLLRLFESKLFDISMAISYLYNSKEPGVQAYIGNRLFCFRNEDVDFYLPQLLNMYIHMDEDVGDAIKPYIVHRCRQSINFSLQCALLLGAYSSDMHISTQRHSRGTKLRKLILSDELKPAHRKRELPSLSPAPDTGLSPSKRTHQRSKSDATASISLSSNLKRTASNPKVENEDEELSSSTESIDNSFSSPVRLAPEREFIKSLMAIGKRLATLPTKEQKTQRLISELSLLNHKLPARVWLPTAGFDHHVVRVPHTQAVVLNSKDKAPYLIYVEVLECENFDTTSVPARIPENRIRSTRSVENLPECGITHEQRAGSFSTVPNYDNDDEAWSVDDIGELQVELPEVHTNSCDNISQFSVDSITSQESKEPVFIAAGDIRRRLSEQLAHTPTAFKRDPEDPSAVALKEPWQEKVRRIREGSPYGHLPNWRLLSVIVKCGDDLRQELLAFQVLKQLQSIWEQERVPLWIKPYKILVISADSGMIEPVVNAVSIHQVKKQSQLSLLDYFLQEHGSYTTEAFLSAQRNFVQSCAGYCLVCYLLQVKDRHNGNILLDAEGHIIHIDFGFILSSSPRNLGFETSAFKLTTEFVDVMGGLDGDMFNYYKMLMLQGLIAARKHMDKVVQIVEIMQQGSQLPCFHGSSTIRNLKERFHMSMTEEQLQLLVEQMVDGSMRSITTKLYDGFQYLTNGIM

[40] = tested on: EGFR (human), P00533 [A750P; 747-749 del]
[41] = target: STK4 (human) (UniProt Q13043)
[42] = target: PRKACA (human) (UniProt P17612)

Chain of MAP2K2 (human) (P36507 whole entry, looked up): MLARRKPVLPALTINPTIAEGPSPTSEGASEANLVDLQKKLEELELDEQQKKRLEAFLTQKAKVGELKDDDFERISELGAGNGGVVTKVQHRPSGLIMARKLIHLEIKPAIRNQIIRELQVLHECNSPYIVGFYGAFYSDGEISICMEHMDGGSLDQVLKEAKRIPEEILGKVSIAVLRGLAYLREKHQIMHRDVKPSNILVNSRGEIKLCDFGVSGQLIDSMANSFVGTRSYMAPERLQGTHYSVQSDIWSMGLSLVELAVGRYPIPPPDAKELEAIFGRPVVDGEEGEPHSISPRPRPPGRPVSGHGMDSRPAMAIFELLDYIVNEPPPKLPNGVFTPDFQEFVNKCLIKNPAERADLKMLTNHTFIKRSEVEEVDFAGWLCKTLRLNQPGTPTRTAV

N#Cc1ccc2ncnc(NCCc3ccc4ccccc4c3)c2c1
kinase still bound, per cent of control [1]: 92%
kinase still bound, per cent of control [2]: 74%
kinase still bound, per cent of control [3]: 100%
kinase still bound, per cent of control [4]: 100%
kinase still bound, per cent of control [5]: 97%
kinase still bound, per cent of control [6]: 80%
kinase still bound, per cent of control [7]: 100%
kinase still bound, per cent of control [8]: 100%
kinase still bound, per cent of control [9]: 96%
kinase still bound, per cent of control [10]: 93%
kinase still bound, per cent of control [11]: 94%
kinase still bound, per cent of control [12]: 100%
kinase still bound, per cent of control [13]: 100%
kinase still bound, per cent of control [14]: 84%
kinase still bound, per cent of control [15]: 95%
kinase still bound, per cent of control [16]: 100%
kinase still bound, per cent of control [17]: 100%
kinase still bound, per cent of control [18]: 99%
kinase still bound, per cent of control [19]: 100%
kinase still bound, per cent of control [20]: 90%
kinase still bound, per cent of control [21]: 93%
kinase still bound, per cent of control [22]: 87%
kinase still bound, per cent of control [23]: 85%
kinase still bound, per cent of control [24]: 94%
kinase still bound, per cent of control [25]: 100%
kinase still bound, per cent of control [26]: 100%
kinase still bound, per cent of control [27]: 100%
kinase still bound, per cent of control [28]: 89%
kinase still bound, per cent of control [29]: 74%
kinase still bound, per cent of control [30]: 80%
kinase still bound, per cent of control [31]: 80%
kinase still bound, per cent of control [32]: 100%
kinase still bound, per cent of control [33]: 100%
kinase still bound, per cent of control [34]: 100%
kinase still bound, per cent of control [35]: 100%
kinase still bound, per cent of control [36]: 77%
kinase still bound, per cent of control [37]: 97%
kinase still bound, per cent of control [38]: 100%
kinase still bound, per cent of control [39]: 95%
kinase still bound, per cent of control [40]: 83%
kinase still bound, per cent of control [41]: 100%
kinase still bound, per cent of control [42]: 100%
